# Assay results: US5041636A, “Urea derivatives” (Wako Pure Chemical Industries, Ltd., priority 1986, dated 1991)
# Counter-ions that a name gives are not always drawn.
# Legend:
# Assay type in all cases: physicochemical
# [1] = Stability after color development (Table 1); set-up: key: A: stable; B: slightly unstable
# Protocol: (§1) Various properties such as the stability of leuco dye solution, the stability after color developed, the maximum absorption wavelength (λmax), the sensitivity (ε) and the solubility in water of typical 14 examples of the urea derivatives of the formula (I) are shown in Table 1.
# (§2) In Table 1, "A" means stable and "B" means slightly unstable in the evaluation of the stability of the leuco dye solution and the stability after color development. The solubility in water is evaluated as .circleincircle. highly soluble, soluble, and X hardly soluble.
# [2] = Maximum absorption wavelength (λmax) and sensitivity (ε) (Table 1); conditions: at color development
# Source text: as §1
# [3] = Stability of leuco dye solution (Table 1); set-up: key: A: stable; B: slightly unstable
# Protocol: as §1, §2
# [4] = Solubility in water (Table 1)
# Protocol: as §1, §2
Stability after color developed [1],λmax [2] [nm],Stability of leuco dye soln. [3],Solubility in water [4],SMILES
B,730,A,–,Cc1ccc(S(=O)(=O)NC(=O)N(c2ccc(N(C)CO)cc2)c2ccc(N3CCCCC3)cc2)cc1 [(5)]
B,730,A,–,CN(C)c1ccc(N(C(=O)NCCC2CCOCC2)c2ccc(N(C)CO)cc2)cc1 [(6)]
B,666,A,.circleincircle,CCCN(CCC)c1ccc2c(c1)Oc1cc(N(CCC)CCC)ccc1N2C(=O)NCC(=O)O [(11)]
B,666,A,.circleincircle,CCCN(CCC)c1ccc2c(c1)Sc1cc(N(CCC)CCC)ccc1N2C(=O)NCC(=O)O [(12)]
B,666,B,.circleincircle,CN(C)c1ccc2c(c1)Oc1cc(N(C)CC(=O)O)ccc1N2C(=O)NCC(=O)O [(13)]
B,666,B,.circleincircle,CN(C)c1ccc2c(c1)Sc1cc(N(C)CC(=O)O)ccc1N2C(=O)NCC(=O)O [(14)]
B,730,A,–,"CNC(=O)N(c1ccc(N(C)C)cc1)c1ccc(N(C)C)cc1 [(15), reference compound]"
B,730,A,–,"CCCCNC(=O)N(c1ccc(N(C)C)cc1)c1ccc(N(C)C)cc1 [(16), reference compound]"
B,666,B,–,"CNC(=O)N1c2ccc(N(C)C)cc2Sc2cc(N(C)C)ccc21 [(17), reference compound]"
B,730,A,.circleincircle,"CN(C)c1ccc(N(C(=O)NCC(=O)O)c2ccc(N(C)C)cc2)cc1 [Compound No. (1), sodium salt of N,N-bis(4-dimethylaminophenyl)-N'-carboxymethylurea]"
B,730,A,.circleincircle,"CN(C)c1ccc(N(C(=O)Nc2ccc(S(=O)(=O)O)cc2)c2ccc(N(C)C)cc2)cc1 [Compound No. (2), sodium salt of N, N-bis(4-dimethylaminophenyl)-N'-(4-sulfophenyl)urea]"
A,740,A,–,"CCN(CC)c1ccc(N(C(=O)NS(=O)(=O)c2ccc(C)cc2)c2ccc(N(C)C)cc2C)c(C)c1 [Compound No. (7), N-(4-dimethylamino-2-methylphenyl)-N-(4'-diethylamino-2'-methylphenyl)-N'-(4-methylphenylsulfonyl)urea]"
B,666,B,.circleincircle,"CN(C)c1ccc2c(c1)Sc1cc(N(C)C)ccc1N2C(=O)NCC(=O)O [Compound No. (9), sodium salt of 10-(carboxymethylaminocarbonyl)-3,7-bis(dimethylamino)phenothiazine]"
B,666,B,.circleincircle,"CN(C)c1ccc2c(c1)Oc1cc(N(C)C)ccc1N2C(=O)NCC(=O)O [Compound No. (10), sodium salt of 10-(carboxymethylaminocarbonyl)-3,7-bis(dimethylamino)phenoxazine]"
